# What was measured:
# HEK293 cells = test: MTT analysis of cell survival rate after ICG and near-infrared light irradiation; format: cell-based, human; settings: ICG at different concentrations + near-infrared light (780 nm) irradiation
# Text: (§1) After administering ICG and near-infrared light (780 nm) excitation and irradiation to HEK293 cells and HT-1080-1B3 cells, observing the cell survival rates of different concentration groups by MTT analysis.
# HT-1080-1B3 cells = test: as above; format: cell-based; settings: ICG at different concentrations + near-infrared light (780 nm) irradiation
# Text: as §1
# mycoplasma [1] = test: DAPI staining of mycoplasma in HEK293 cells after ICG light treatment; format: cell-based; settings: 50 μg/mL ICG + 780 nm laser, 10 minutes
# Method: (§2) After HEK293 cells are treated with 50 μg/mL ICG and irradiated with near-infrared light excitation, the distribution of mycoplasma in each group was observed by DAPI staining (the red arrow indicates the expression position of mycoplasma). CTL: control group; −Laser: not excited by laser; +Laser: excited by laser.
# (§3) First, HT1080-1B3 and HEK293 cells were collected through trypsin-EDTA reaction and then seeded into a six-well plate at a cell number of 3×10^5 cells/well. The next day, a working concentration of 50 μg/mL of ICG was added to each well, and the reaction took place in the dark at 37° C. for 1 hour. After the reaction was completed, the cells were irradiated with near-infrared light of 780 nm wavelength for 10 minutes. The supernatant was removed, and the cells were washed twice with PBS. Then, a working concentration of 1 μg/ml DAPI was added to each well, and the reaction took place in the dark at room temperature for 15 minutes. Finally, washed twice with PBS, and the quantitative changes of stained mycoplasma chromosomes were observed under the UV light mode of an inverted fluorescence microscope (Nikon).
# mycoplasma [2] = test: RT-PCR of mycoplasma DNA in HEK293 cells after ICG light treatment; format: cell-based; settings: 50 μg/mL ICG + 780 nm laser, 10 minutes
# Method: (§4) (A) After HEK293 cells are treated with 50 μg/mL ICG and irradiated with near-infrared light excitation, the expression level of mycoplasma DNA in each group was observed by RT-PCR and DNA electrophoresis. (B) Results of DNA electrophoresis were quantitated by the Image J software (p-value: *<0.05, **<0.01, and ***<0.001).
# (§5) HT1080-1B3 and HEK293 cells were collected through trypsin-EDTA reaction and then seeded into a six-well plate at a cell number of 3×10^5 cells/well. The next day, a working concentration of 50 μg/mL of ICG was added to each well, and the reaction took place in the dark at 37° C. for 1 hour. After the reaction was completed, the cells were irradiated with near-infrared light of 780 nm wavelength for 10 minutes, the supernatant was removed, and the cells were washed twice with PBS. Then, the cells were collected into a 1.5 mL test tube with trypsin-EDTA, 100 μL KAPA rapid extraction buffer was added to the test tube, and the test tube was placed in a dry bath at 75° C. for 10 minutes and at 95° C. for 5 minutes. Then, DNA samples were prepared according to the operating manual of the e-Myco™ VALID Mycoplasma PCR detection kit, and PCR reaction was performed by PCR instrument (Applied Biosystems) under setting conditions (30 cycles: 95° C./3 minutes, 95° C./15 seconds, 55° C./15 seconds, 72° C./20 seconds and 72° C./1 minute). […]
# mycoplasma [3] = test: DAPI staining of mycoplasma in HT1080-1B3 cells after ICG light treatment; format: cell-based; settings: HT-1080-1B3 cells (overexpress OATP1B3); 50 μg/mL indocyanine green + 780 nm laser, 10 minutes
# Method: as §2, with “HT1080-1B3” for “HEK293”
# as §3
# mycoplasma [4] = test: RT-PCR of mycoplasma DNA in HT1080-1B3 cells after ICG light treatment; format: cell-based; settings: HT-1080-1B3 cells (overexpress OATP1B3); 50 μg/mL indocyanine green + 780 nm laser, 10 minutes
# Method: as §4, §5
smiles,measurement,setting,value
"CC1(C)C(/C=C/C=C/C=C/C=C2\N(CCCCS(=O)(=O)O)c3ccc4ccccc4c3C2(C)C)=[N+](CCCCS(=O)(=O)[O-])c2ccc3ccccc3c21 [ICG, Indocyanine green]",cell survival rate (MTT analysis),HEK293 cells,no negative impact on cells
same,cell survival rate (MTT analysis),HT-1080-1B3 cells,no negative impact on cells
same,number of mycoplasma bacteria (DAPI staining),mycoplasma [1],significantly reduced
same,"expression level of mycoplasma DNA (RT-PCR, DNA electrophoresis)",mycoplasma [2],significantly reduce
same,number of mycoplasma bacteria (DAPI staining),mycoplasma [3],disappears
same,"expression level of mycoplasma DNA (RT-PCR, DNA electrophoresis)",mycoplasma [4],no expression level of mycoplasma DNA was observed

# — patent US20250375525A1, “USE OF INDOCYANINE GREEN IN ANTIBACTERIAL OR BACTERICIDAL APPLICATION” (Buddhist Tzu Chi Medical Foundation, priority 2024, published 2025)
